System: gPSCs
Experiment: Upstream/downstream ROCK pathway inhibitors used in the culture conditions in place of a ROCK inhibitor
Format: cell-based
Description: As used herein, inhibiting ROCK can mean to reduce the activity, function or expression of at least one of ROCK1 or ROCK2. […] In general, ROCK phosphorylates LIM kinase and myosin light chain (MLC) phosphatase after being activated through binding of GTP-bound Rho. One embodiment of the present invention thus involves blocking the upstream pathway of ROCK1 and/or ROCK2, for example GTP-bound Rho, such that ROCK1 and/or ROCK2 is not activated or its activity is reduced over untreated cells. Other upstream effectors include but are not limited to, integrins, growth factor receptors, including but not limited to, TGF-beta and EGFR, cadherins, G protein coupled receptors and the like. Another embodiment of the present invention thus involves blocking the activity, function or expression of downstream effector molecules of activated ROCK1 and/or ROCK2 such that ROCK1 and/or ROCK2 cannot propagate any signal or can only propagate a reduced signal over untreated cells. Downstream effectors include but are not limited to, Myosin phosphatase-targeting protein (MYPT), vimentin, LIMK, Myosin light chain kinase, NHE1, cofilin, Myosin II and the like. […] Upstream or downstream inhibition of ROCK, in place of direct ROCK inhibition and in conjunction with the other culture conditions described and required herein, may or may not generate conditionally immortalized gPSCs.

## Cc1ccc2c(c1)C(=O)C1(O)CCN(c3ccccc3)C1=N2 (centres unmarked) [blebbistatin]
  Effect on cells in culture: allow the cells to bypass differentiation and allow proliferation in vitro

## C3 transferase
  Effect on cells in culture: allow the cells to bypass differentiation and allow proliferation in vitro

Source: patent US20200283726A1, “PROCESS FOR CONTINUOUS CELL CULTURE OF GPSCS” (Georgetown University, priority 2017, published 2020)
